Laboratory results published in US8569242B2, “Method of treating degenerative disorders of the nervous system” (The Regents of the University of California, priority 2005, dated 2013).
Entries after “also recorded” stand apart in the source; their conditions may differ.

Experiments:
[1] = test system: splenocytes; assay: FACS analysis of splenocytes for peripheral immune cell markers; format: in vivo, mouse; conditions: peptide-treated vs untreated PLP139-151 immunized mice, day 29
Excerpt: FACS Analysis. Primary mouse splenocytes were isolated from control and γ^377-395 peptide-treated mice, immunized with PLP139-151, on day 29 after immunization. Cells were immunostained with antibodies to CD4, CD8, CD11b, CD11c, CD19, B220 (1:100, Biolegend, San Diego, Calif.) and analyzed on a Becton Dickinson FACSCalibur flow cytometer.

[2] = test system: Mac-1 overexpressing cells; conditions: reference (37); cited from earlier work
[3] = test system: primary microglia; assay: Morphometry of microglia activation (Isolectin B4 staining, cell size); format: cell-based, mouse; conditions: for effect on LPS-mediated microglia activation: LPS 1 μg/mL
Method: Culture of primary microglia cells. Microglia were isolated from cultures of mixed cortical cells as described (59). In brief, cortices from P1 mice were isolated and digested with trypsin (0.4%) for 20 minutes at 37° C. Cells from 4 pups were plated onto PDL-coated 75 cm2 tissue-culture flasks. The culture medium (DMEM, 10% heat-inactivated FBS, and 1% Pen/Strep) was changed on day 2. After 2-3 weeks in culture, the microglia were removed by the addition of 12 mM lidocaine (Sigma-Aldrich, St. Louis, Mo.) and orbital shaking (180 rpm) for 20 minutes at 37° C. The cells were centrifuged (350×G) and the pellet was resuspended in complete medium and plated onto PDL-coated tissue culture dishes. Microglia cell cultures were >95% pure as determined with three different markers, IsoB4, IBA-1 and CD11b. To immobilize fibrinogen, tissue culture dishes were incubated overnight with 50 μg/mL fibrinogen (Calbiochem, San Diego, Calif.) in 20 mM Tris (pH 7.5) and 0.1 M NaCl at 37° C. for all fibrinogen treatments. To serve as positive controls, LPS (Sigma-Aldrich, St. Louis, Mo.) was added to the media at 1 μg/mL.
Morphometry. Primary microglia were used for all morphologic analysis. Cells were plated on coated fibrinogen or in the presence of LPS for 72 hours. Microglia were fixed with methanol and immunostained with Isolectin B4 (1:300, Sigma-Aldrich, St. Louis, Mo.). Activated microglia were quantificated as those cells larger than 2,000 μm^2. Blocking experiments involved the daily administration of rat anti-CD11b (10 μg/mL, eBioscience, San Diego, Calif.), γ^377-395 peptide (200 μM) or rat IgG (10 μg/mL, Jackson ImmunoResearch Laboratories, West Grove, Pa.). Results were obtained from six separate experiments performed in duplicates. 250 cells per condition were counted for each individual experiment. Statistical calculations were made by using Student's t test.

[4] = test system: PLP139-151 EAE in SJL/J mice; assay: PLP139-151 EAE after vaccination with γ^377-395 peptide; format: in vivo, mouse
Method: (§1) Induction of EAE. EAE was induced in 6 week old female SJL/J or C57BL/6 mice by subcutaneous immunization with 150 μg PLP139-151 (HSLGKWLGHPDKF) (SEQ ID NO: 5). American Peptide Company and Azco Pharmchem, San Jose, Calif.) or 50 μg MOG35-55 ([…]) (SEQ ID NO: 6), Sigma-Aldrich, St. Louis, Mo.) in complete Freund's adjuvant (Sigma-Aldrich, St. Louis, Mo.) supplemented with […] heat inactivated mycobacterium tuberculosis H37Ra (Difco Laboratories, Detroit, Mich.). Mice were injected intravenously with 200 ng pertussis toxin (Sigma-Aldrich, St. Louis, Mo.) on days 0 and 2 of the immunization. Mice were scored daily. 0: no symptoms, 1: loss of tail tone, 2: ataxia, 3: hindlimb paralysis, 4: hindlimb and forelimb paralysis, 5: moribund Data are represented as the mean clinical score and are mean±SEM. Statistical calculations were made by using Student's t test.
Fibrinogen γ^377-395 peptide vaccination. Vaccination was performed as described (56) with the following modifications. Five week old female SJL/J mice were immunized with 200 μg fibrinogen γ^377-395 peptide (YSMKETTMKIIPFNRLSIG) (SEQ ID NO: 2), Azco Pharmchem, San Jose, Calif.) emulsified with an equal volume of incomplete freund's adjuvant (Sigma-Aldrich, St. Louis, Mo.). Mice were immunized four times in alternating rear flanks over the course of two weeks. Control animals were immunized with incomplete Freund's adjuvant.
(§2) Histopathology. Histopathologic analysis and quantification of inflammation and demyelination in mouse tissue was performed on cryostat or paraffin sections as described (57). Sections were stained with luxol fast blue and nuclear red. Spinal cord sections were fixed with 2% PFA for 10 minutes at 4° C. and immunostained with a sheep anti-fibrinogen antibody (1:200, US Biological, Swampscott, Mass.), rat anti-CD11b (1:5, Chemicon), von Willebrand Factor (1:1000, Dakocytomation, Glostrup, Denmark), iNOS (polyclonal Chemicon, Temecula, Calif., 1:750), Mac-3 (rat-anti-mouse, Pharmingen, San Diego, Calif., 1:200), CNPase (monoclonal, Sternberger monoclonals, Lutherville, Md., 1:2000). For human MS, paraffin embedded material was obtained from the Archives of the Center for Brain Research, Medical University of Vienna. Double immunofluorescence was performed with antibodies against CD68 and fibrin. Images were collected using an Axioplan 2 Zeiss microscope with an Axiocam HRc camera or were processed for confocal microscopy using Olympus and Zeiss confocal microscopes.
(§3) Rotarod behavior test. The rotarod assay was performed on a TSE accelerating Rotarod apparatus (TSE Technical and Scientific Equipment GmbH) as described (58). Rotarod assays were conducted with a 300 second maximum time limit and means were collected for at least three trials. Statistical calculations were made by using Students t test.

[5] = target: Mac-1 (Homo sapiens, UniProt P11215); conditions: from cited biochemical studies; cited from earlier work
[6] = test system: PLP139-151 EAE in SJL/J mice; assay: Remitting-relapsing PLP139-151 EAE, intranasal γ^377-395 peptide after first paralytic episode; format: in vivo, mouse
Method: as §1
Intranasal γ^377-395 peptide administration. Fibrinogen γ^377-395 peptide (YSMKETTMKIIPFNRLSIG) (SEQ ID NO: 2), Azco Pharmchem, San Jose, Calif.) was resuspended in 0.9% NaCl at a concentration of 3 mg/mL. Peptides were aliquoted as single doses and stored at […]. Mice were administered 5 μL of peptide or 0.9% NaCI, as a control, in each nare daily using a P10 micropipettor (Gilson, Middleton, Wis.) beginning after the peak of the first paralytic episode.
as §2, §3

[7] = 30 μg i.n. daily, day 30 after immunization

tyr-ser-met-lys-lys-thr-thr-met-lys-ile-ile-pro-phe-asn-arg-leu-thr-ile-gly (YSMKKTTMKIIPFNRLTIG) (listed as Homo sapiens) [γ^377-395 peptide]
peripheral immune cells (CD4, CD8, CD11b, CD11c, CD19, B220) in splenocytes [1]: did not reveal any differences; also recorded: no significant effect | concentration shown to inhibit adhesion of Mac-1 overexpressing cells to immobilized fibrinogen [2]: 200 µM | effect on LPS-mediated microglia activation [3]: did not inhibit | effect on LPS-mediated microglia activation ([3]; listed as γ^377-395): has no effect | % of activated microglia in fibrinogen treated cells in the presence of blocker ([3]; M1/70 10 μg/mL or γ^377-395 peptide 200 μM daily, fibrinogen alone 71±4.9%): 38.3±9.8% | fibrinogen-induced morphologic activation of microglia (in words) ([3]; added to microglia on immobilized fibrinogen): attenuated | effect on activation state of untreated microglia ([3]; peptide 200 μM): did not affect | vaccinated mice that developed EAE ([4]; 8/15, all control mice 15/15, 200 μg peptide in IFA four times before EAE induction): 53% | rotarod: increase in motor strength and coordination vs control mice ([4]; vaccinated mice): 76% | histopathology index, brain ([4]; vaccinated mice, control 2.3±1): 1.5±2 | histopathology index, spinal cord ([4]; vaccinated mice, control 12±5.2): 6.5±5.9 | average clinical score ([4]; vaccinated mice, control group 2.5, scale 0-5): 1.1 | blocking of fibrin(ogen) binding to Mac-1 (CD11b) [5]: blocks | increase of motor functions vs control mice ([6]; 30 μg i.n. daily, after the first relapse on day 29): 1.4 fold | reduction in Mac-3 (microglia/macrophage marker) immunostaining [6, 7]: 2 fold | reduction in iNOS immunostaining [6, 7]: 4.2 fold | relapse of paralysis (clinical score) ([6]; 30 μg intranasally daily after first paralytic episode, n=14 vs control n=13): did not show a relapse | T cell infiltration ([6]; peptide-treated vs control): no major differences
